Measurements: the supplement of paper PMC10307832

Key:
Assay in all cases: relative viability (nuclei count vs DMSO), 5 days (fraction); higher = more cells survive
Palbociclib + Bortezomib = compound: CC(=O)c1c(C)c2cnc(Nc3ccc(N4CCNCC4)cn3)nc2n(C2CCCC2)c1=O [Palbociclib] + CC(C)C[C@H](NC(=O)[C@H](Cc1ccccc1)NC(=O)c1cnccn1)B(O)O [Bortezomib] (partner 0.002 µM)
Procedure, shortened: (§1)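 Relative viability was taken as the ratio of nuclei in treated wells to nuclei in vehicle wells. Lung cancer cell lines in 1536-well plates received compounds by pin tool one day after seeding, either one drug alone or a fixed anchor-drug dose plus five library-drug doses (not always all listed) in √10 steps. Nuclei were counted on 4× images after 5 days of treatment, and values are medians of duplicate plates.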

Palbociclib + Navitoclax = compound: CC(=O)c1c(C)c2cnc(Nc3ccc(N4CCNCC4)cn3)nc2n(C2CCCC2)c1=O [Palbociclib] + CC1(C)CCC(c2ccc(Cl)cc2)=C(CN2CCN(c3ccc(C(=O)NS(=O)(=O)c4ccc(N[C@H](CCN5CCOCC5)CSc5ccccc5)c(S(=O)(=O)C(F)(F)F)c4)cc3)CC2)C1 [Navitoclax] (partner 0.5 µM)
Procedure, shortened: as §1

Palbociclib + Crizotinib = compound: CC(=O)c1c(C)c2cnc(Nc3ccc(N4CCNCC4)cn3)nc2n(C2CCCC2)c1=O [Palbociclib] + C[C@@H](Oc1cc(-c2cnn(C3CCNCC3)c2)cnc1N)c1c(Cl)ccc(F)c1Cl [Crizotinib] (partner 1 µM)
Procedure, shortened: as §1

Palbociclib + Pemetrexed = compound: CC(=O)c1c(C)c2cnc(Nc3ccc(N4CCNCC4)cn3)nc2n(C2CCCC2)c1=O [Palbociclib] + Nc1nc2[nH]cc(CCc3ccc(C(=O)N[C@@H](CCC(=O)O)C(=O)O)cc3)c2c(=O)[nH]1 [Pemetrexed] (partner 0.2 µM)
Procedure, shortened: as §1

Cell Line: RERF-LC-KJ
- relative viability (Palbociclib + Bortezomib; first compound 0.01 µM): 1.17
- relative viability (Palbociclib + Bortezomib; first compound 0.03162 µM): 1.12
- relative viability (Palbociclib + Bortezomib; first compound 0.1 µM): 1.11
- relative viability (Palbociclib + Bortezomib; first compound 0.3162 µM): 1.04
- relative viability (Palbociclib + Bortezomib; first compound 1 µM): 1.15
- relative viability (Palbociclib + Navitoclax; first compound 0.01 µM): 0.87
- relative viability (Palbociclib + Navitoclax; first compound 0.03162 µM): 0.8
- relative viability (Palbociclib + Navitoclax; first compound 0.1 µM): 1.26
- relative viability (Palbociclib + Navitoclax; first compound 0.3162 µM): 1.32
- relative viability (Palbociclib + Navitoclax; first compound 1 µM): 1.11
- relative viability (Palbociclib + Crizotinib; first compound 0.01 µM): 0.909
- relative viability (Palbociclib + Crizotinib; first compound 0.03162 µM): 0.82
- relative viability (Palbociclib + Crizotinib; first compound 0.1 µM): 0.82
- relative viability (Palbociclib + Crizotinib; first compound 0.3162 µM): 0.88
- relative viability (Palbociclib + Crizotinib; first compound 1 µM): 0.87
- relative viability (Palbociclib + Pemetrexed; first compound 0.01 µM): 0.437
- relative viability (Palbociclib + Pemetrexed; first compound 0.03162 µM): 0.45
- relative viability (Palbociclib + Pemetrexed; first compound 0.1 µM): 0.432
- relative viability (Palbociclib + Pemetrexed; first compound 0.3162 µM): 0.486
- relative viability (Palbociclib + Pemetrexed; first compound 1 µM): 0.469

Cell Line: SK-LU-1
- relative viability (Palbociclib + Bortezomib; first compound 0.01 µM): 1.47
- relative viability (Palbociclib + Bortezomib; first compound 0.1 µM): 0.92
- relative viability (Palbociclib + Bortezomib; first compound 0.3162 µM): 0.912
- relative viability (Palbociclib + Bortezomib; first compound 1 µM): 0.58
- relative viability (Palbociclib + Navitoclax; first compound 0.01 µM): 0.938
- relative viability (Palbociclib + Navitoclax; first compound 0.03162 µM): 0.757
- relative viability (Palbociclib + Navitoclax; first compound 0.1 µM): 0.725
- relative viability (Palbociclib + Navitoclax; first compound 0.3162 µM): 0.539
- relative viability (Palbociclib + Navitoclax; first compound 1 µM): 0.733
- relative viability (Palbociclib + Crizotinib; first compound 0.01 µM): 0.908
- relative viability (Palbociclib + Crizotinib; first compound 0.03162 µM): 0.738
- relative viability (Palbociclib + Crizotinib; first compound 0.1 µM): 0.624
- relative viability (Palbociclib + Crizotinib; first compound 0.3162 µM): 0.67
- relative viability (Palbociclib + Crizotinib; first compound 1 µM): 0.471
- relative viability (Palbociclib + Pemetrexed; first compound 0.01 µM): 1.02
- relative viability (Palbociclib + Pemetrexed; first compound 0.03162 µM): 0.96
- relative viability (Palbociclib + Pemetrexed; first compound 0.1 µM): 0.836
- relative viability (Palbociclib + Pemetrexed; first compound 0.3162 µM): 0.753
- relative viability (Palbociclib + Pemetrexed; first compound 1 µM): 0.556

Cell Line: SW 1573
- relative viability (Palbociclib + Bortezomib; first compound 0.01 µM): 1.15
- relative viability (Palbociclib + Bortezomib; first compound 0.03162 µM): 0.928
- relative viability (Palbociclib + Bortezomib; first compound 0.1 µM): 0.985
- relative viability (Palbociclib + Bortezomib; first compound 0.3162 µM): 0.842
- relative viability (Palbociclib + Bortezomib; first compound 1 µM): 0.506
- relative viability (Palbociclib + Navitoclax; first compound 0.01 µM): 0.986
- relative viability (Palbociclib + Navitoclax; first compound 0.03162 µM): 1
- relative viability (Palbociclib + Navitoclax; first compound 0.1 µM): 0.838
- relative viability (Palbociclib + Navitoclax; first compound 0.3162 µM): 0.642
- relative viability (Palbociclib + Navitoclax; first compound 1 µM): 0.439
- relative viability (Palbociclib + Crizotinib; first compound 0.01 µM): 0.776
- relative viability (Palbociclib + Crizotinib; first compound 0.03162 µM): 0.672
- relative viability (Palbociclib + Crizotinib; first compound 0.1 µM): 0.685
- relative viability (Palbociclib + Crizotinib; first compound 0.3162 µM): 0.758
- relative viability (Palbociclib + Crizotinib; first compound 1 µM): 0.615
- relative viability (Palbociclib + Pemetrexed; first compound 0.01 µM): 0.773
- relative viability (Palbociclib + Pemetrexed; first compound 0.03162 µM): 0.729
- relative viability (Palbociclib + Pemetrexed; first compound 0.1 µM): 0.646
- relative viability (Palbociclib + Pemetrexed; first compound 0.3162 µM): 0.681
- relative viability (Palbociclib + Pemetrexed; first compound 1 µM): 0.461

Cell Line: UMC-11
- relative viability (Palbociclib + Bortezomib; first compound 0.01 µM): 0.934
- relative viability (Palbociclib + Bortezomib; first compound 0.03162 µM): 0.625
- relative viability (Palbociclib + Bortezomib; first compound 0.1 µM): 0.466
- relative viability (Palbociclib + Bortezomib; first compound 0.3162 µM): 0.292
- relative viability (Palbociclib + Bortezomib; first compound 1 µM): 0.238
- relative viability (Palbociclib + Navitoclax; first compound 0.01 µM): 0.326
- relative viability (Palbociclib + Navitoclax; first compound 0.03162 µM): 0.326
- relative viability (Palbociclib + Navitoclax; first compound 0.1 µM): 0.23
- relative viability (Palbociclib + Navitoclax; first compound 0.3162 µM): 0.257
- relative viability (Palbociclib + Navitoclax; first compound 1 µM): 0.223
- relative viability (Palbociclib + Crizotinib; first compound 0.01 µM): 0.603
- relative viability (Palbociclib + Crizotinib; first compound 0.03162 µM): 0.519
- relative viability (Palbociclib + Crizotinib; first compound 0.1 µM): 0.428
- relative viability (Palbociclib + Crizotinib; first compound 0.3162 µM): 0.346
- relative viability (Palbociclib + Crizotinib; first compound 1 µM): 0.177
- relative viability (Palbociclib + Pemetrexed; first compound 0.01 µM): 0.795
- relative viability (Palbociclib + Pemetrexed; first compound 0.03162 µM): 0.726
- relative viability (Palbociclib + Pemetrexed; first compound 0.1 µM): 0.594
- relative viability (Palbociclib + Pemetrexed; first compound 0.3162 µM): 0.473
- relative viability (Palbociclib + Pemetrexed; first compound 1 µM): 0.308
